{"source": "paper PMC11061835", "about": "“Elucidating the Mechanism of Metabolism of Cannabichromene by Human Cytochrome P450s” (Journal of Natural Products, 2024)", "key": {"[1]": {"molecular_target": "T1, CYP2J2 in the presence of CPR (Homo sapiens, UniProt P51589)", "T1 construct": "His-tag; made in house; host or cells: E. coli DH-5α with pTGro7 plasmid (CYP)", "T1 sequence (P51589 1-502)": "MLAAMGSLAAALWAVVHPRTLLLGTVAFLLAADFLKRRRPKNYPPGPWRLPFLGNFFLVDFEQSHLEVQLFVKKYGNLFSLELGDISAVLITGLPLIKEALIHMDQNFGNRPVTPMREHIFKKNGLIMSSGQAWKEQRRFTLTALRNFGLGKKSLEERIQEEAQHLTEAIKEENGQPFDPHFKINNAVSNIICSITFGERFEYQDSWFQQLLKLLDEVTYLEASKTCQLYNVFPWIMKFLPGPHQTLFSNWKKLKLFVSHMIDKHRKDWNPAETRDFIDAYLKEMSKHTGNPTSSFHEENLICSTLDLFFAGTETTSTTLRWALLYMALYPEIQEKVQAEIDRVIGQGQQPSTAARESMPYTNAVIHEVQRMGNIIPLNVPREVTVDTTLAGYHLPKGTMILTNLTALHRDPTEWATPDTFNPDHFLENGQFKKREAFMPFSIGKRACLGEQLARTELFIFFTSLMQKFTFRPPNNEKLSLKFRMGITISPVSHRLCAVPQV", "T1 sequence (P16435 1-677 partner)": "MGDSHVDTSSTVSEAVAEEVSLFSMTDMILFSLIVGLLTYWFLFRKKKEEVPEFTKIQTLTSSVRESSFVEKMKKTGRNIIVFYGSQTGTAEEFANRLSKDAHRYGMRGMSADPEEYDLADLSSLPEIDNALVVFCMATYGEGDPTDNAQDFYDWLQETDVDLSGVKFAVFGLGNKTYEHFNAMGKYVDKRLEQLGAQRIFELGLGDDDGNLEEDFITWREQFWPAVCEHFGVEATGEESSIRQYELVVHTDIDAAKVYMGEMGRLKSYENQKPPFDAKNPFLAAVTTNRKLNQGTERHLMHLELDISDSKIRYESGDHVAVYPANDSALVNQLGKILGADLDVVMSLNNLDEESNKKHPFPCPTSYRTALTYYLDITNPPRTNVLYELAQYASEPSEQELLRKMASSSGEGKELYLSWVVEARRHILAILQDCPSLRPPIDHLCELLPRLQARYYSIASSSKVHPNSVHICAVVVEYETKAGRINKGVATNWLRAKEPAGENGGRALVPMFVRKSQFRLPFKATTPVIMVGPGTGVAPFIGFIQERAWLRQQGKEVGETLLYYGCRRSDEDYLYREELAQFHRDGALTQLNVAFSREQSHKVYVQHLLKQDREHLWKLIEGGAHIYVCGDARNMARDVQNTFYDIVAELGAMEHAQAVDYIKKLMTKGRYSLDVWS", "assay": "Spectroscopic titration, CYP2J2–CPR complex", "format": "binding", "procedure": "For CBC titration to CYP–CPR complex, initially CYPs were dissolved in 400 μL of 0.1 M phosphate buffer (pH = 7.4) keeping the concentration between […]. Following this 50 μL of CPR (50 μM stock) was added to both cuvettes, and the final concentration of both of the proteins was 5–6 μM. Both proteins were initially mixed and incubated for 5 min followed by titration with CBC in the same process as mentioned above. The substrate-bound spectra were then subtracted from substrate-free spectra, and the extent of binding was analyzed using Origin Pro 2020."}, "CYP2C9 with CPR": {"molecular_target": "T2, CYP2C9 with CPR (Homo sapiens, UniProt P11712)", "T2 construct": "His-tag; made in house; host or cells: E. coli DH-5α with pTGro7 plasmid (CYP)", "T2 sequence (P11712 whole entry, one chain of several)": "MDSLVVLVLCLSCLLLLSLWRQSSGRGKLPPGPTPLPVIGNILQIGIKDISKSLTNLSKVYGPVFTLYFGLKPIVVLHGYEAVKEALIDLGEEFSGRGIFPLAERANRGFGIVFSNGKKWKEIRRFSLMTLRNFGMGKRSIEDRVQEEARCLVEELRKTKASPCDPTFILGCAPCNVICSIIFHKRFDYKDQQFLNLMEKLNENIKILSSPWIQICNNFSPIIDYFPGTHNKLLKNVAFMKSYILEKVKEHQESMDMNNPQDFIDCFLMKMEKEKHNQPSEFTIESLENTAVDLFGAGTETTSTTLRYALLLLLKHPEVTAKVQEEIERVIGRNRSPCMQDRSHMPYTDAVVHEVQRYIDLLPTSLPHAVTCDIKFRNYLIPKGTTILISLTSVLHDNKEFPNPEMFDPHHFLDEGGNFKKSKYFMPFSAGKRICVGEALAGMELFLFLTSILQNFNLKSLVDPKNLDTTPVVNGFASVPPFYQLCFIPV", "assay": "NADPH activity assay, CYP2C9 with CPR", "format": "biochemical", "settings": "CYP2C9, CBC 50 μM vs substrate-free", "procedure": "CYP-mediated NADPH oxidation was measured using kinetics mode in a Cary 300 UV–vis spectrometer (Agilent Technologies). 0.2 μM (final concentration) of CYP was taken in 0.1 M potassium phosphate buffer (pH 7.4) and incubated with 0.6 μM (final concentration) of CPR for 5 min with a reaction volume of 400 μL. The reaction was initiated with 200 μM of NADPH, and the absorption change was monitored over 10 min at 340 nm. The rate of NADPH consumption (or NADPH to NADP^+ conversion) was calculated by taking the molar extinction coefficient as 6.22 mM^–1 cm^–1 at 340 nm. To estimate the change in NADPH oxidation in the presence of CBC, both CYP and CPR were further incubated using CBC (final concentration 50 μM) for 5 min followed by measuring the change in absorbance at 340 nm as discussed earlier."}, "CYP2D6": {"molecular_target": "CYP2D6 (Homo sapiens, UniProt P10635)", "sequence (P10635 whole entry)": "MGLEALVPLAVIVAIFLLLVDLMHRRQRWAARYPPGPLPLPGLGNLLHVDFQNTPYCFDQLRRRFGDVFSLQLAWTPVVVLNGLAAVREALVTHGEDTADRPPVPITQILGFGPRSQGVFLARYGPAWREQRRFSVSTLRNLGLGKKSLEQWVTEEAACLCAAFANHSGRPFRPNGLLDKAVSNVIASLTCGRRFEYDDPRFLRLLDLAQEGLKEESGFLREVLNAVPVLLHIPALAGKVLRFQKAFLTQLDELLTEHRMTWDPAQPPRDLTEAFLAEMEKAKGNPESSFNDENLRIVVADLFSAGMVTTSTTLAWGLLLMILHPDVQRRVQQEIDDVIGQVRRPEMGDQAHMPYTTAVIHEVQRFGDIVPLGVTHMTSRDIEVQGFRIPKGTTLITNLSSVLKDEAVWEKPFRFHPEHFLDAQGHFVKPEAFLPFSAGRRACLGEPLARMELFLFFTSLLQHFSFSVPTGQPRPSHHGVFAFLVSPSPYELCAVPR", "assay": "Spectroscopic titration (Soret shift), CYP2D6", "format": "binding", "design": "His-tag; made in house; host or cells: E. coli DH-5α with pTGro7 plasmid", "settings": "CYP2D6, absence of CPR", "procedure": "CBC binding to various CYPs was determined by analyzing the Soret shift from ∼417 to ∼390 nm. CBC (stock 10 mM) was dissolved in ethanol and titrated with different CYPs at room temperature. Buffer-exchanged CYP2J2, CYP2D6, CYP3A4, and CYP2C8 (concentrations of proteins were kept between 4 and 5 μM) were dissolved in 0.1 M phosphate buffer (pH = 7.4), and initial spectra were recorded from 200 to 800 nm with a prominent peak at 417 nm. The concentration of CBC was varied from 0 to 100 μM keeping the final concentration of substrate in EtOH not more than 1% in cuvette. 0–4 μL of stock CBC was added using a Hamilton syringe in both the sample and blank cuvettes. The mixture was incubated for 5 min at 37 °C, and absorbance spectra were recorded using a Cary Bio 300 UV–vis spectrophotometer (Agilent Technologies, Santa Clara, CA). To eliminate the background absorbance, we derived the final spectra by […]."}}, "note": "Where “and” joins values, the source holds several entries; their conditions need not be identical. Equal entries are not always repeated."}
{"smiles": "CCCCCc1cc(O)c2c(c1)OC(C)(CCC=C(C)C)C=C2", "note": "(centres unmarked) [CBC, Cannabichromene]", "values": [{"measurement": "ΔAmax (spin state change due to heme perturbation)", "setting": "[1]", "value": "0.09 ± 0.00 and ~0.1"}, {"measurement": "Kd", "setting": "[1]; read-out: Kd(app)", "value": "1.19 µM and < 10 µM and ~1 µM"}, {"measurement": "percentage increase of NADPH consumption in the presence of CBC", "setting": "CYP2C9 with CPR", "value": "~90", "unit": "%"}, {"measurement": "ΔAmax (spin state change due to heme perturbation)", "setting": "CYP2D6", "value": "0.09 ± 0.01 and ~0.09"}, {"measurement": "Kd", "setting": "CYP2D6; read-out: Kd(app)", "value": "11.4 µM and ~11 µM"}]}
